Experiment [1] concerns the target T1, Cholecystokinin receptor type A (Homo sapiens, UniProt P32238). Note: in other assays of this panel Not Active means under 50% inhibition at 10 µM.
T1 sequence (P32238 whole entry): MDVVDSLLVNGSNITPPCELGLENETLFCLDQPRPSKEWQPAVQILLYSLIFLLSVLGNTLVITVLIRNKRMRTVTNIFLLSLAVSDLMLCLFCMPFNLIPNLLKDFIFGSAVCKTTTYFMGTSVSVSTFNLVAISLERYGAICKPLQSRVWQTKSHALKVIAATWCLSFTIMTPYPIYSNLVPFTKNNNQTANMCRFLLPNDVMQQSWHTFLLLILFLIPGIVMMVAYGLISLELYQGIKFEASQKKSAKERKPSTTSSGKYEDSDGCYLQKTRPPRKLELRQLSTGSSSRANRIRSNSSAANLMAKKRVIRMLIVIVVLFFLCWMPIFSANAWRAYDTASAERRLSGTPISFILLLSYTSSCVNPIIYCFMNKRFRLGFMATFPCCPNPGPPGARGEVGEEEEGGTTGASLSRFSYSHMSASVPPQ
The class given is cell membranes, Membrane. The following applies: 1321-n1.

Another experiment deals with Insulin receptor (Rattus norvegicus, UniProt P15127). The class given is cell membranes, Wistar, Liver, Membrane.
Insulin receptor, sequence (P15127 27-759 limits assumed): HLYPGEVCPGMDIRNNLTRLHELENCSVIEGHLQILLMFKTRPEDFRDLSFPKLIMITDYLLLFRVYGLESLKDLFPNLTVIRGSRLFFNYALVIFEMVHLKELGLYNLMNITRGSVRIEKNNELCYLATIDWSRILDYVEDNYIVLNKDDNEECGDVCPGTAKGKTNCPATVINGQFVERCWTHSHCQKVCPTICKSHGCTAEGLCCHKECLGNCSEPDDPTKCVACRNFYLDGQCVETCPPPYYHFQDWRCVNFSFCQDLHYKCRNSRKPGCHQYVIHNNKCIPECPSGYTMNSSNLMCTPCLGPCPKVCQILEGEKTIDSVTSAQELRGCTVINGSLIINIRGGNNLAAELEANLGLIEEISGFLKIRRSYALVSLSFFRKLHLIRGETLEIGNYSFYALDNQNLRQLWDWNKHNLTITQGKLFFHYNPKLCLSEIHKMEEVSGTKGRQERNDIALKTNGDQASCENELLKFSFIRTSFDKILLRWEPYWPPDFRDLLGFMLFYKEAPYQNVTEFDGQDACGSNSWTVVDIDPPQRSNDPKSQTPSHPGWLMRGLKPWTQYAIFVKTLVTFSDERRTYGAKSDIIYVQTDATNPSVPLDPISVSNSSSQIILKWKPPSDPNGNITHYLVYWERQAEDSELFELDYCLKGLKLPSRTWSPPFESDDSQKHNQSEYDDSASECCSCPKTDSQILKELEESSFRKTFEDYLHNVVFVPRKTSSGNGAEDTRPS
Insulin receptor, sequence (P15127 764-1383 limits assumed): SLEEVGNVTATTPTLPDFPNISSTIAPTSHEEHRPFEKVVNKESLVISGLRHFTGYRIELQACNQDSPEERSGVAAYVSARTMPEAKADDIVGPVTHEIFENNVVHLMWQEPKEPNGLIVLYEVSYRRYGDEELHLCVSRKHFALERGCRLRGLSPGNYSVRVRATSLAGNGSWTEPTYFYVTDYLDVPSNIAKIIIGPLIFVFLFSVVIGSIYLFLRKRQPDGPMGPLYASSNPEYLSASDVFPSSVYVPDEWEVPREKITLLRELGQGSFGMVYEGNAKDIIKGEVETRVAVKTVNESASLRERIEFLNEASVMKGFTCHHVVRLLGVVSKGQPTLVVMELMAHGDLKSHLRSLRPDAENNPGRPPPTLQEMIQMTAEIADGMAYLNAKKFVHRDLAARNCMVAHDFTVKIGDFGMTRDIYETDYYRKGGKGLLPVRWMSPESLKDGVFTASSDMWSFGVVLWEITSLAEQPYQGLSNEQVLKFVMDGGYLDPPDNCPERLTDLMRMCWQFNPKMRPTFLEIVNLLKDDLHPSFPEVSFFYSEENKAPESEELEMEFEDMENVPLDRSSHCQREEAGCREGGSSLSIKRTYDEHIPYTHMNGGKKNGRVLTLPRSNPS
For experiment [2], the target named is T2, C-X-C chemokine receptor type 2 (Homo sapiens, UniProt P25025). Note: in other assays of this panel Not Active means under 50% inhibition at 10 µM.
T2 sequence (P25025 whole entry): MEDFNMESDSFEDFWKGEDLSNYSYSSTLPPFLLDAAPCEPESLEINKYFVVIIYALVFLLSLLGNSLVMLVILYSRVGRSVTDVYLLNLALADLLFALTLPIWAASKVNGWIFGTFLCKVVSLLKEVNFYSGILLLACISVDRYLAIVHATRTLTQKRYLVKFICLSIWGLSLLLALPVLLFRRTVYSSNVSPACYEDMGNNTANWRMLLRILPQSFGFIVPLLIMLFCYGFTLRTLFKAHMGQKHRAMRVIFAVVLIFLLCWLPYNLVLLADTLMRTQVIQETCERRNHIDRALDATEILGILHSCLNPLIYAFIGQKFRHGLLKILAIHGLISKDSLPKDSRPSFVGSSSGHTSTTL
The class given is cell membranes, Membrane. The following applies: cho-k1.

Experiment [3] has as its target Mitogen-activated protein kinase 14 (Homo sapiens, UniProt Q16539). Further details: species or system Escherichia coli.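 Note: inhibition of p38alpha enzyme activity in a biochemical kinase assay, with myelin basic protein serving as substrate; in other assays of this panel Not Active means under 50% inhibition at 10 µM.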
Experiment [4] has as its target T3, Polyunsaturated fatty acid lipoxygenase ALOX15 (Oryctolagus cuniculus, UniProt P12530).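 Note: inhibition of 15-lipoxygenase enzyme activity measured with linoleic acid as the substrate; in other assays of this panel Not Active means under 50% inhibition at 10 µM.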
T3 sequence (P12530 whole entry): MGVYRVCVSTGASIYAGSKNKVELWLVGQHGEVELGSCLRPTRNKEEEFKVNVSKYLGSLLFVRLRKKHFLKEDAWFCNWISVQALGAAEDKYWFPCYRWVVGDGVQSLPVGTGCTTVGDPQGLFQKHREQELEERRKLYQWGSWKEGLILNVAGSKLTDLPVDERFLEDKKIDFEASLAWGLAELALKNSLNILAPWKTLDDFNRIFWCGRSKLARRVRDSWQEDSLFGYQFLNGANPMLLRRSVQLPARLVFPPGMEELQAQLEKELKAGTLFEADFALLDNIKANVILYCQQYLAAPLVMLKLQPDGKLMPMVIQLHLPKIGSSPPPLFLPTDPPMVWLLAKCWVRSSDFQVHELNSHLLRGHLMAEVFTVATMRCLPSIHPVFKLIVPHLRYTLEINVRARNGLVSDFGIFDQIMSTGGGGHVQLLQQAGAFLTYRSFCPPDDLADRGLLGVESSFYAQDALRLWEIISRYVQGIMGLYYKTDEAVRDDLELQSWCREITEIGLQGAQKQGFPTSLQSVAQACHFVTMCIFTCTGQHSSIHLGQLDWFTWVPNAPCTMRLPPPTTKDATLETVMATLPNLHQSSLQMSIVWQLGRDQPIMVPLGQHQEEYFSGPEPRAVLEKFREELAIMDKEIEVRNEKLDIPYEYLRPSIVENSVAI
Kind of experiment: biochemical. Format: tissue-based, Reticulocytes.

For a further experiment, the target named is Estrogen receptor beta (Homo sapiens, UniProt Q92731). The conditions noted are these: sf9. Note: in other assays of this panel Not Active means under 50% inhibition at 10 µM.
Estrogen receptor beta, sequence (Q92731 whole entry): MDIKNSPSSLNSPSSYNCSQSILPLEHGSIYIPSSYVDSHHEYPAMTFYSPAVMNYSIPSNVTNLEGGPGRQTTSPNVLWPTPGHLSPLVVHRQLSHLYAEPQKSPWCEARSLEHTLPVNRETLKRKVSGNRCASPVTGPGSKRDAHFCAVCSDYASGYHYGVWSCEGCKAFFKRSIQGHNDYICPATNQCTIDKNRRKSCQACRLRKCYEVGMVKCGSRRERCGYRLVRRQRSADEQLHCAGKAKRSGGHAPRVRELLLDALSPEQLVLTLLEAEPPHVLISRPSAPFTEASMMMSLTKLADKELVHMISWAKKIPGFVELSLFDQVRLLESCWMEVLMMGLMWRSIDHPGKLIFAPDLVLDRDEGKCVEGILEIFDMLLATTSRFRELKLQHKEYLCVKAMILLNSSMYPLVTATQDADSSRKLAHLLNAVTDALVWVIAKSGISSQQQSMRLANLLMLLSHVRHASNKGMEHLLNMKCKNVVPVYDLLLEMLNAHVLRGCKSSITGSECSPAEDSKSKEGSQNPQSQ
For experiment [5], the target named is Sigma non-opioid intracellular receptor 1 (Homo sapiens, UniProt Q99720). Nature of the experiment: DRUGMATRIX: Sigma1 radioligand binding (ligand: [3H] Haloperidol). The class given is cell membranes, Jurkat, Membrane. The conditions noted are these: jurkat; Not Active = under 50% inhibition at 10 µM.
Sigma non-opioid intracellular receptor 1, sequence (Q99720 whole entry): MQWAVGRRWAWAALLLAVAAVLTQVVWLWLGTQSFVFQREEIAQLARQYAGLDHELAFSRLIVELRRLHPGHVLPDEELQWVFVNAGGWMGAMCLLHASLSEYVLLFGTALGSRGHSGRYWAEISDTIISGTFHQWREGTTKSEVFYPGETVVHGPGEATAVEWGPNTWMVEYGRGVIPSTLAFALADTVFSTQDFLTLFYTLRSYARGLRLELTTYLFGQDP

*1 amine or outer side, *2 acyl side, *3 side chain or, on linkers, in order; H or OH if unused. Where a SMILES comes first, the peptide text is derived from it. Bridges are numbered along the chain shown (N, C = ends). Roman numbers before positions name the chains, in order. [ ]: non-standard residue; d: D form. Actinocin(1to9) = Cc1c2oc3c(C)ccc(C(=O)[*:2])c3nc-2c(C(=O)[*:1])c(N)c1=O; NMeV = CN[C@H](C(=O)O)C(C)C; Sar = CNCC(=O)O

Mitogen-activated protein kinase 14, sequence (Q16539 whole entry): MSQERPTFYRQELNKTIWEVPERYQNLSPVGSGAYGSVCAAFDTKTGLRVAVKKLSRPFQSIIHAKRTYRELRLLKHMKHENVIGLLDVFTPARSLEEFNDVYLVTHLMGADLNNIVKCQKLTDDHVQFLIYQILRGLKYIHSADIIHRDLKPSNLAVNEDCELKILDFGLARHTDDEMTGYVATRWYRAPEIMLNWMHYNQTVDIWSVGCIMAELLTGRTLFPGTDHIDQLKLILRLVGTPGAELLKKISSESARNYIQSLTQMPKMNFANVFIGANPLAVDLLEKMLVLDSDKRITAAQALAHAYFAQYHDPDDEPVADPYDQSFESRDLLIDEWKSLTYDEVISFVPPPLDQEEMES

In the case of `Cc1ccc(/N=C/N(C)/C=N/c2ccc(C)cc2C)c(C)c1` [AMITRAZ], the half-inhibitory concentration (IC50) entry (in experiment [1]; against Insulin receptor; in experiment [2]; in experiment [3]; in experiment [4] (reticulocytes); on Estrogen receptor beta) was “Not Active” each time. The IC50 (commonly the midpoint of a concentration-inhibition curve) in experiment [5] is given as “Not Active”.
Regarding `Cc1ccc2cc3c(ccc4ccccc43)c3c2c1CC3` [3-METHYLCHOLANTHRENE], the half-maximal inhibitory concentration (IC50) entry (in experiment [1]; against Insulin receptor; in experiment [2]; in experiment [3]; in experiment [4] (reticulocytes); at Estrogen receptor beta) was “Not Active” each time. Further, in experiment [5], the half-maximal inhibitory concentration (IC50) entry is “Not Active”.
In the case of `OC(Cn1cncn1)(Cn1cncn1)c1ccc(F)cc1F` [FLUCONAZOLE], the half-maximal inhibitory concentration (IC50) result (in experiment [1]; against Insulin receptor; in experiment [2]; in experiment [3]; in experiment [4] (reticulocytes); against Estrogen receptor beta) was “Not Active” throughout. The IC50 result in experiment [5] is “Not Active”.
For `Cc1c2oc3c(C)ccc(C(=O)N[C@@H]4C(=O)N[C@H](C(C)C)C(=O)N5CCC[C@H]5C(=O)N(C)CC(=O)N(C)[C@@H](C(C)C)C(=O)O[C@@H]4C)c3nc-2c(C(=O)N[C@@H]2C(=O)N[C@H](C(C)C)C(=O)N3CCC[C@H]3C(=O)N(C)CC(=O)N(C)[C@@H](C(C)C)C(=O)O[C@@H]2C)c(N)c1=O` [DACTINOMYCIN] (I: T[dV]P[Sar][NMeV] / II: T[dV]P[Sar][NMeV]; ester I:1-I:C, II:1-II:C; linker I:N-II:N via Actinocin(1to9)), the half-maximal inhibitory concentration (IC50) result (in experiment [1]; against Insulin receptor; in experiment [2]; in experiment [3]; in experiment [4] (reticulocytes); on Estrogen receptor beta) was “Not Active” in each case. The 50% inhibitory concentration (IC50) entry in experiment [5] is given as “Not Active”.
For the molecule `CC(NC(C)(C)C)C(=O)c1cccc(Cl)c1` (stereo not drawn) [BUPROPION], the IC50 entry (in experiment [1]; at Insulin receptor; in experiment [2]; in experiment [3]; in experiment [4] (reticulocytes); at Estrogen receptor beta) was “Not Active” throughout. Further, the IC50 entry in experiment [5] is given as “Not Active”.
In the case of `Cc1cc(C2CCCCC2)n(O)c(=O)c1` [CICLOPIROX], the half-maximal inhibitory concentration (IC50) entry (in experiment [1]; at Insulin receptor; in experiment [2]; in experiment [3]; in experiment [4] (reticulocytes); at Estrogen receptor beta) was “Not Active” each time. The 50% inhibitory concentration (IC50) result in experiment [5] was “Not Active”.
With `CC1(C)S[C@@H]2[C@H](NC(=O)Cc3ccccc3)C(=O)N2[C@H]1C(=O)O` [PENICILLIN G], the IC50 result (in experiment [1]; against Insulin receptor; in experiment [2]; in experiment [3]; in experiment [4] (reticulocytes); against Estrogen receptor beta) was “Not Active” throughout. Moreover, the IC50 entry in experiment [5] is given as “Not Active”.
As to `CCCCc1nc(Cl)c(CO)n1Cc1ccc(-c2ccccc2-c2nnn[nH]2)cc1` [LOSARTAN], the IC50 entry (in experiment [1]; on Insulin receptor; in experiment [2]; in experiment [3]; in experiment [4] (reticulocytes); on Estrogen receptor beta) was “Not Active” in each case. Moreover, the half-inhibitory concentration (IC50) entry in experiment [5] was “Not Active”.
For `COc1cc2nc(N3CCN(C(=O)C4COc5ccccc5O4)CC3)nc(N)c2cc1OC` (stereo not drawn) [DOXAZOSIN], the IC50 entry (in experiment [1]; on Insulin receptor; in experiment [2]; in experiment [3]; in experiment [4] (reticulocytes); at Estrogen receptor beta) was “Not Active” each time. In experiment [5], the IC50 result is reported as “Not Active”.
For the molecule `CCCCN1CCCC[C@H]1C(=O)Nc1c(C)cccc1C` [LEVOBUPIVACAINE], the half-inhibitory concentration (IC50) result (in experiment [1]; against Insulin receptor; in experiment [2]; in experiment [3]; in experiment [4] (reticulocytes); against Estrogen receptor beta) was “Not Active” in each case. In experiment [5], the IC50 entry is “Not Active”.
Take `Cc1onc(O)c1CC(N)C(=O)O` (racemic) [(R,S)-AMPA]: the 50% inhibitory concentration (IC50) entry (in experiment [1]; against Insulin receptor; in experiment [2]; in experiment [3]; in experiment [4] (reticulocytes); on Estrogen receptor beta) was “Not Active” each time. Besides, the half-inhibitory concentration (IC50) entry in experiment [5] is “Not Active”.
In the case of `CC1CC(OC(=O)C(O)c2ccccc2)CC(C)(C)C1` (stereo not drawn) [CYCLANDELATE], the IC50 entry (in experiment [1]; on Insulin receptor; in experiment [2]; in experiment [3]; in experiment [4] (reticulocytes); at Estrogen receptor beta) was “Not Active” throughout. For the same molecule, the IC50 result in experiment [5] is listed as “Not Active”.
As for `COCCc1ccc(OCC(O)CNC(C)C)cc1` (stereo not drawn) [METOPROLOL], the IC50 result (in experiment [1]; at Insulin receptor; in experiment [2]; in experiment [3]; in experiment [4] (reticulocytes); on Estrogen receptor beta) was “Not Active” throughout. Further, the 50% inhibitory concentration (IC50) result in experiment [5] is “Not Active”.
Turning to `c1ccc(Nc2ccc(Nc3ccccc3)cc2)cc1`, the IC50 result is “Not Active” in experiment [1]; “Not Active” against Insulin receptor; “Not Active” in experiment [2]; “Not Active” in experiment [3]; 2880 nM in experiment [4] (read-out: IC50); “Not Active” against Estrogen receptor beta. In addition, the concentration for half-maximal inhibition (IC50) entry in experiment [5] is recorded as “Not Active”.
Regarding `Cc1onc(-c2ccccc2Cl)c1C(=O)N[C@@H]1C(=O)N2[C@@H]1SC(C)(C)[C@@H]2C(=O)O` [CLOXACILLIN], the IC50 result (in experiment [1]; against Insulin receptor; in experiment [2]; in experiment [3]; in experiment [4] (reticulocytes); on Estrogen receptor beta) was “Not Active” in each case. In addition, the concentration for half-maximal inhibition (IC50) entry in experiment [5] was “Not Active”.
Regarding `CC1=C2C(=CO[C@H](C)[C@H]2C)C(O)=C(C(=O)O)C1=O` [CITRININ], the half-inhibitory concentration (IC50) entry (in experiment [1]; against Insulin receptor; in experiment [2]; in experiment [3]; in experiment [4] (reticulocytes); against Estrogen receptor beta) was “Not Active” each time. In addition, the IC50 entry in experiment [5] was “Not Active”.
On to `CC(C)C(=O)Nc1ccc([N+](=O)[O-])c(C(F)(F)F)c1` [FLUTAMIDE], for which the IC50 entry (in experiment [1]; against Insulin receptor; in experiment [2]; in experiment [3]; in experiment [4] (reticulocytes); at Estrogen receptor beta) was “Not Active” each time. The IC50 entry in experiment [5] was “Not Active”.
As for `CC[C@@]1(O)C[C@H](O[C@H]2C[C@H](N(C)C)[C@H](O[C@H]3C[C@H](O)[C@H](O[C@H]4CCC(=O)[C@H](C)O4)[C@H](C)O3)[C@H](C)O2)c2c(cc3c(c2O)C(=O)c2c(O)cccc2C3=O)[C@H]1C(=O)OC` [ACLARUBICIN], the half-inhibitory concentration (IC50) entry (in experiment [1]; against Insulin receptor; in experiment [2]; in experiment [3]; in experiment [4] (reticulocytes); on Estrogen receptor beta) was “Not Active” throughout. Besides, in experiment [5], the IC50 result is “Not Active”.
As to `Nc1nc2c(ncn2CCC(CO)CO)c(=O)[nH]1` [PENCICLOVIR], the IC50 entry (in experiment [1]; against Insulin receptor; in experiment [2]; in experiment [3]; in experiment [4] (reticulocytes); on Estrogen receptor beta) was “Not Active” in each case. In addition, the IC50 result in experiment [5] was “Not Active”.

The values are drawn from ChEMBL document CHEMBL1909046, “DrugMatrix in vitro pharmacology data”.
